Consider 4 compounds from patent US7049321B2, “Methods and pharmaceutical compositions for treatment of central and peripheral nervous system disorders and compounds useful therefor” (Israel Institute for Biological Research, priority 2002, dated 2006).

SMILES strings stand for the structures.

Assay [1] concerns rat primary cerebral cortex cell cultures. In words: APPs secretion in rat primary cortical cell cultures. Format: cell-based. Particulars: 100 μm.
The test system of assay [2] is rat primary hippocampal cell cultures. Description: APPs secretion in rat primary hippocampal cell cultures. As to conditions: 100 μm. Format: cell-based.
The test system of the next assay is rabbits with nbm lesions. In words: CSF and cortical Aβ in hypocholinergic (nbm-lesioned) rabbits. The class given is in vivo, New Zealand White rabbits. As to conditions: 4 weeks. The text has this: It is known that experimentally-induced cortical cholinergic denervation results in biochemical elevations of cortical Aβ concentrations and in histologic Aβ deposition (Beach et al, Neurosci Lett 283: 9–12, 2000), and that administration of muscarinic Ml-selective agents to normal animals decreases CSF AP concentrations {Beach et al Brain Res. 905: 220–223, 2001}.
Twenty-eight female New Zealand White rabbits, about 2.5 kg each (young adults) were used. Twenty-one received lesions of the cholinergic nucleus basalis magnocellularis (nbm). The lesion was accomplished with unilateral i.c.v. injections of an immunotoxin consisting of the ribosomal toxin saporin conjugated to the monoclonal antibody ME20.4, which is directed against the low-affinity neurotrophin receptor, p75. The ME20.4 antibody is made against monkey p75 and also recognizes rabbit p75. The dose of immunotoxin was 32.4 μg in 12 μl; this was delivered to the right lateral ventricle 2 mm lateral to the bregma. Seven animals received i.c.v. injections of sterile normal saline (sham lesion). Animals which received the immunotoxin were divided into 3 groups of 7. […] Another group received physostigmine hemisalicylate in normal saline by s.c. osmotic pump at a daily dose of 3 mg/kg. The third group received twice-daily sterile saline s.c. injections. The animals which received a sham lesion were implanted with s.c. osmotic pumps filled with sterile normal saline. Animals were euthanized 4 weeks after surgery. […] Cerebrospinal fluid was taken from the cisterna magna of all animals at the time of sacrifice; the brain was removed and sliced coronally into 0.5 cm slices. […] The other slices were frozen on sheets of dry ice (the other slices are the non-fixed 0.5 cm coronal slices of cerebrum, brainstem and cerebellum).

The target in another assay is T1, M2 mAChR (Homo sapiens, UniProt P08172).
T1 construct: expressed in transfected cells; host or cells: 'modified cell cultures' giving a Ca increase; modification not described
T1 sequence (P08172 whole entry): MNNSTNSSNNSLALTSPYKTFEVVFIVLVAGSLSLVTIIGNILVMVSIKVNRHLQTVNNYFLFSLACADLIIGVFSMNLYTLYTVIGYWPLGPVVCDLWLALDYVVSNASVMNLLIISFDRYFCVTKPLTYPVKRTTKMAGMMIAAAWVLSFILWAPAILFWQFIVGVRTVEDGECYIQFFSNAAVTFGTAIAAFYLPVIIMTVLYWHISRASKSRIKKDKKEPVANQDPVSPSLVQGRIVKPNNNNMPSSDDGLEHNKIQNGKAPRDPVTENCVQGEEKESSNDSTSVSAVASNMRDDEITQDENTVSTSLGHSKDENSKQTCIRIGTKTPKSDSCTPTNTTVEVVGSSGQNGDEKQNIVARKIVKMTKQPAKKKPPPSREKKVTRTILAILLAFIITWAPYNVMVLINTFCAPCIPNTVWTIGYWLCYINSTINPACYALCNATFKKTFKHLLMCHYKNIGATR
In words: Intracellular Ca increase in modified cell cultures, M2. Format: cell-based.

The next assay deals with T2, M1 receptors (Rattus norvegicus, UniProt P08482).
T2 construct: from tissue; host or cells: rat cortical membranes
T2 sequence (P08482 1-460): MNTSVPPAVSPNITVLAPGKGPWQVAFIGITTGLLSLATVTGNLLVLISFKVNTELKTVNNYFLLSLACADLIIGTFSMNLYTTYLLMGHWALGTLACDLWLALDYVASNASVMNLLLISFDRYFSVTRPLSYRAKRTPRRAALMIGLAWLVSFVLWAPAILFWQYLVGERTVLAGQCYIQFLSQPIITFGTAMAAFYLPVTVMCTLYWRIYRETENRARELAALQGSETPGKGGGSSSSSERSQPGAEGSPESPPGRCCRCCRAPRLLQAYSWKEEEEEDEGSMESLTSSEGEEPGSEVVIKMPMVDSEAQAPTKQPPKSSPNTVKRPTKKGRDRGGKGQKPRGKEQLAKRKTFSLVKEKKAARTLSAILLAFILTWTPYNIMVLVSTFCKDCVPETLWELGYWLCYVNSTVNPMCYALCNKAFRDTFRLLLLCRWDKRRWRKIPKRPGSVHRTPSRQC
In words: [3H]PZ competition binding to rat cortical membranes. Particulars: rat cortex. The text has this:
Pirenzepine (PZ), a muscarinic antagonist, binds preferentially to M1 receptors while OXO-M binds to all mAChR subtypes non-selectively; the ratio between the Ki values for PZ versus that of OXO-M may be indicative of the selectivity of the tested compound. The smaller the ratio, the more M1 selective is the tested compound. […] The OXO-M/PZ ratio is ˜0.36 showing a moderately high selectivity for the M1 receptor.

In the next assay the target is muscarinic receptor. In words: [3H]OXO-M competition binding. As to conditions: rat cortex.

For the compound `O=C1CCCN1CC#CCN1CCCC1` [Oxotremorine, oxotremorine, reference compound], the “APPs secretion, activity in words” value in assay [1] and in assay [2] was “inactive” each time.
`CNC(=O)Oc1ccc2c(c1)[C@]1(C)CCN(C)[C@@H]1N2C` [physostigmine, reference compound]: the “APPs secretion, activity in words” value in assay [1] and in assay [2] was “inactive” each time. In addition, the “Histologic Aβ deposition, % of the lesioned, untreated group” value with rabbits with nbm lesions is listed as 6.4%.
Consider `C[N+](C)(C)CCOC(N)=O` [carbachol, reference compound], for which the “Increase in activity on the M2 mAChR” value on M2 mAChR is reported as 8 fold.
The Ki is the dissociation constant of the complex between target and ligand, obtained from inhibition or displacement. Low readings indicate a stronger hold on the target, high ones a looser hold on the target. For `CC[C@H]1SC2(CCNCC2)NC1=O` [AF291, (R)-2-Ethyl-1-thia-4,8-diaza-spiro[4.5]decan-3-one], the Ki at M1 receptors worked out at 10.7 µM; at muscarinic receptor, 6.56 µM.
